“Also recorded” adds a separate entry of the source. Marks after values point to notes of the source that are not given here.
Each compound was assayed on intracellular T. gondii tachyzoites in HFF monolayers (assay: Replication assay). Conditions: 1 μM; separate experiments, authors' unpublished results [37].
Assay type: cell-based, Toxoplasma gondii

Row | SMILES | Parasite doublings per vacuole, dose-response experiment [doubling]
1 | CC1=C(c2nc(C)cs2)O[C@@H]2O[C@@]3(C)CC[C@H]4[C@H](C)CC[C@@H]1[C@@]24OO3 [Compound 2] | 2
2 | CC1=C(c2nc(C)c(C)s2)O[C@@H]2O[C@@]3(C)CC[C@H]4[C@H](C)CC[C@@H]1[C@@]24OO3 [Compound 3] | 1
3 | CC1=C(c2ncc(C)s2)O[C@@H]2O[C@@]3(C)CC[C@H]4[C@H](C)CC[C@@H]1[C@@]24OO3 [Compound 4] | 2
4 | CC1=C(c2nc(-c3ccccc3)cs2)O[C@@H]2O[C@@]3(C)CC[C@H]4[C@H](C)CC[C@@H]1[C@@]24OO3 [Compound 5] | 1
5 | CC1=C(c2nc(-c3ccccc3)no2)O[C@@H]2O[C@@]3(C)CC[C@H]4[C@H](C)CC[C@@H]1[C@@]24OO3 [Compound 14] | 1

Same assay, conditions: 5 μM; separate experiments, authors' unpublished results [37]

Row | SMILES | Parasite doublings per vacuole, dose-response experiment [doubling]
6 | CC1=C(c2nc(C)cs2)O[C@@H]2O[C@@]3(C)CC[C@H]4[C@H](C)CC[C@@H]1[C@@]24OO3 [Compound 2] | 1
7 | CC1=C(c2nc(C)c(C)s2)O[C@@H]2O[C@@]3(C)CC[C@H]4[C@H](C)CC[C@@H]1[C@@]24OO3 [Compound 3] | 1
8 | CC1=C(c2ncc(C)s2)O[C@@H]2O[C@@]3(C)CC[C@H]4[C@H](C)CC[C@@H]1[C@@]24OO3 [Compound 4] | 1
9 | CC1=C(c2nc(-c3ccccc3)cs2)O[C@@H]2O[C@@]3(C)CC[C@H]4[C@H](C)CC[C@@H]1[C@@]24OO3 [Compound 5] | 1
10 | CC1=C(c2nc(-c3ccccc3)no2)O[C@@H]2O[C@@]3(C)CC[C@H]4[C@H](C)CC[C@@H]1[C@@]24OO3 [Compound 14] | 1

Same assay, conditions: 10 μM, added 2 h after inoculation, 24-26 h

Row | SMILES | Replication inhibition, result in words
11 | CO[C@H]1O[C@@H]2O[C@@]3(C)CC[C@H]4[C@H](C)CC[C@@H]([C@H]1C)[C@@]24OO3 [Artemether, reference compound] | only modest inhibition
12 | C[C@@H]1CC[C@H]2[C@@H](C)C(=O)O[C@@H]3O[C@@]4(C)CC[C@@H]1[C@]32OO4 [Artemisinin, reference compound] | no measurable activity
13 | CC1=C(c2nc(C3CCCCC3)cs2)O[C@@H]2O[C@@]3(C)CC[C@H]4[C@H](C)CC[C@@H]1[C@@]24OO3 [Compound 8] | only weakly inhibited replication
14 | CSc1ccc(-c2csc(C3=C(C)[C@@H]4CC[C@@H](C)[C@@H]5CC[C@@]6(C)OO[C@@]45[C@H](O3)O6)n2)cc1 [Compound 11] | completely inhibited replication
15 | CC1=C(c2nc(-c3ccccc3)no2)O[C@@H]2O[C@@]3(C)CC[C@H]4[C@H](C)CC[C@@H]1[C@@]24OO3 [Compound 14] | effectively inhibited replication
16 | CC1=C(C(=O)NCc2ccc(F)cc2)O[C@@H]2O[C@@]3(C)CC[C@H]4[C@H](C)CC[C@@H]1[C@@]24OO3 [Compound 20] | effectively inhibited replication
17 | CC1=C(C(=O)NCc2ccc(C(F)(F)F)cc2)O[C@@H]2O[C@@]3(C)CC[C@H]4[C@H](C)CC[C@@H]1[C@@]24OO3 [Compound 22] | effectively inhibited replication
18 | CC1=C(C(=O)NCc2cc(Br)cc(Br)c2)O[C@@H]2O[C@@]3(C)CC[C@H]4[C@H](C)CC[C@@H]1[C@@]24OO3 [Compound 25] | completely inhibited replication; also recorded: effectively inhibited replication

Same assay, conditions: 10 μM; separate experiments, authors' unpublished results [37]

Row | SMILES | Parasite doublings per vacuole, dose-response experiment [doubling]
19 | CC1=C(c2nc(C)cs2)O[C@@H]2O[C@@]3(C)CC[C@H]4[C@H](C)CC[C@@H]1[C@@]24OO3 [Compound 2] | 1
20 | CC1=C(c2nc(C)c(C)s2)O[C@@H]2O[C@@]3(C)CC[C@H]4[C@H](C)CC[C@@H]1[C@@]24OO3 [Compound 3] | 1
21 | CC1=C(c2ncc(C)s2)O[C@@H]2O[C@@]3(C)CC[C@H]4[C@H](C)CC[C@@H]1[C@@]24OO3 [Compound 4] | 1
22 | CC1=C(c2nc(-c3ccccc3)cs2)O[C@@H]2O[C@@]3(C)CC[C@H]4[C@H](C)CC[C@@H]1[C@@]24OO3 [Compound 5] | 0.5
23 | CC1=C(c2nc(-c3ccccc3)no2)O[C@@H]2O[C@@]3(C)CC[C@H]4[C@H](C)CC[C@@H]1[C@@]24OO3 [Compound 14] | 0.5

Same assay, conditions: Toxoplasma gondii, read-out: Inhibition of parasite replication

Row | SMILES | inhibition at 10 µM [%]
24 | CC1=C(c2nc(-c3ccc(S(C)(=O)=O)cc3)cs2)O[C@@H]2O[C@@]3(C)CC[C@H]4[C@H](C)CC[C@@H]1[C@@]24OO3 [Compound 12] | 75
25 | CC1=C(c2nc(C)no2)O[C@@H]2O[C@@]3(C)CC[C@H]4[C@H](C)CC[C@@H]1[C@@]24OO3 [Compound 13] | 50
26 | CC1=C(c2nc(-c3ccccc3)no2)O[C@@H]2O[C@@]3(C)CC[C@H]4[C@H](C)CC[C@@H]1[C@@]24OO3 [Compound 14] | 75
27 | CCNC(=O)C1=C(C)[C@@H]2CC[C@@H](C)[C@@H]3CC[C@@]4(C)OO[C@@]23[C@H](O1)O4 [Compound 15] | 50
28 | CC1=C(C(=O)NCc2ccccc2)O[C@@H]2O[C@@]3(C)CC[C@H]4[C@H](C)CC[C@@H]1[C@@]24OO3 [Compound 18] | 50
29 | CC1=C(C(=O)NCc2ccc(F)cc2)O[C@@H]2O[C@@]3(C)CC[C@H]4[C@H](C)CC[C@@H]1[C@@]24OO3 [Compound 20] | 75
30 | CC1=C(C(=O)NCc2ccc(C)cc2)O[C@@H]2O[C@@]3(C)CC[C@H]4[C@H](C)CC[C@@H]1[C@@]24OO3 [Compound 21] | 50
31 | CC1=C(C(=O)NCc2ccc(C(F)(F)F)cc2)O[C@@H]2O[C@@]3(C)CC[C@H]4[C@H](C)CC[C@@H]1[C@@]24OO3 [Compound 22] | 75
32 | CC1=C(C(=O)NCc2ccc(F)c(F)c2)O[C@@H]2O[C@@]3(C)CC[C@H]4[C@H](C)CC[C@@H]1[C@@]24OO3 [Compound 23] | 50
33 | CC1=C(C(=O)NCc2cc(F)cc(F)c2)O[C@@H]2O[C@@]3(C)CC[C@H]4[C@H](C)CC[C@@H]1[C@@]24OO3 [Compound 24] | 50

These compounds were tested on human foreskin fibroblast (HFF) host cells (assay: not given). Conditions: 5 days.
Assay type: cell-based

Row | SMILES | TD50, median cytotoxic dose
34 | COc1cc(Cc2cnc(N)nc2N)cc(OC)c1OC [Trimethoprim] | ≥320 ^b μM

Each compound was assayed on tachyzoites of T.gondii strain 2F (assay: Five day growth inhibition assay). Conditions: HFF cells.
Assay type: cell-based, Toxoplasma gondii

Row | SMILES | Growth inhibition, result in words
35 | CC1=C(c2nc(C3CCCCC3)cs2)O[C@@H]2O[C@@]3(C)CC[C@H]4[C@H](C)CC[C@@H]1[C@@]24OO3 [Compound 8] | ineffective
36 | CCN(CC)C(=O)C1=C(C)[C@@H]2CC[C@@H](C)[C@@H]3CC[C@@]4(C)OO[C@@]23[C@H](O1)O4 [Compound 16] | ineffective; also recorded: activity is lost
37 | CC1=C(C(=O)NCc2cc(F)cc(F)c2)O[C@@H]2O[C@@]3(C)CC[C@H]4[C@H](C)CC[C@@H]1[C@@]24OO3 [Compound 24] | potent parasite inhibition
38 | CC1=C(C(=O)NCc2cc(Br)cc(Br)c2)O[C@@H]2O[C@@]3(C)CC[C@H]4[C@H](C)CC[C@@H]1[C@@]24OO3 [Compound 25] | potent parasite inhibition
